The results in this text go back to ChEMBL document CHEMBL1909046, “DrugMatrix in vitro pharmacology data”.

Usually IC50 stands for the point on the concentration scale where inhibition reaches its midpoint.

A short description of assay [1]: DRUGMATRIX: Atrial Natriuretic Factor (ANF) radioligand binding (ligand: [125I] ANF (rat)). In kind it is cell membranes, Cavia porcellus, Dunkin-Hartley, Adrenal gland, Membrane. Conditions: Not Active = under 50% inhibition at 10 µM.
The nature of assay [2]: DRUGMATRIX: Sodium/nucleoside co-transporter radioligand binding (ligand: nitrobenzylthioinosine). Format: cell membranes, Cavia porcellus, Dunkin-Hartley, Cerebral cortex, Membrane. Conditions: Not Active = under 50% inhibition at 10 µM.
For assay [3], the target named is T1, Alpha-1D adrenergic receptor (Homo sapiens, UniProt P25100). Note: in other assays of this panel Not Active means under 50% inhibition at 10 µM.
T1 sequence (P25100 whole entry): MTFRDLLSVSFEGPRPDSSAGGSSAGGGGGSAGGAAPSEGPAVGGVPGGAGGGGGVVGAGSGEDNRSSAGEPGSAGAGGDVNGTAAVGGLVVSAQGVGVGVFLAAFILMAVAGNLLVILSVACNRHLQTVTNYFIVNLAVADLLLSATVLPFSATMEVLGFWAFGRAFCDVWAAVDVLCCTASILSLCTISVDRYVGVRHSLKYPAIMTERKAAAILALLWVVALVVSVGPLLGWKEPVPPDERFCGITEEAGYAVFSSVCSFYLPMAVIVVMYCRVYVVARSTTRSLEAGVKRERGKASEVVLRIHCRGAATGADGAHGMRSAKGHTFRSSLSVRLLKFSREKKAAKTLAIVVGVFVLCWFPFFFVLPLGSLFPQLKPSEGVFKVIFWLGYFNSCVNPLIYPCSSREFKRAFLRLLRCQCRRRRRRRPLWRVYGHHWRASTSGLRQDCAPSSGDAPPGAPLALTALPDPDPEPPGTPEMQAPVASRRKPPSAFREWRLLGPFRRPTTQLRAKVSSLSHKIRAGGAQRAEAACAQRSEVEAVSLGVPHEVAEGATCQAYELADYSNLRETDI
Format: cell membranes, HEK293, Membrane. Conditions: hek293.

Assay [4] has as its target T2, Substance-K receptor (Homo sapiens, UniProt P21452). Note: in other assays of this panel Not Active means under 50% inhibition at 10 µM.
T2 sequence (P21452 whole entry): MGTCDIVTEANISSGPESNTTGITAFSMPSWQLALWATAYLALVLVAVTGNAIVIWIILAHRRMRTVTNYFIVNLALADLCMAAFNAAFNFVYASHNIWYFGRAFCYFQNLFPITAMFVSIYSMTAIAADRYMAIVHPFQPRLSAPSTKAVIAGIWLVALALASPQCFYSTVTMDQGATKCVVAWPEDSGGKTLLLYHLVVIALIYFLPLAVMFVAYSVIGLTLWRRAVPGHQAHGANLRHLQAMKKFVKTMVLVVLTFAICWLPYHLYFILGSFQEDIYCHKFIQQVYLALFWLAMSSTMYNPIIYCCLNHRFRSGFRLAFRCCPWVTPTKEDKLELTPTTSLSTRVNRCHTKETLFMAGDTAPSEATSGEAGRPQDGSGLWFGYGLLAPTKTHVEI
In kind it is cell membranes, CHO, Membrane. Conditions: cho.

In assay [5] the target is Mitogen-activated protein kinase 14 (Homo sapiens, UniProt Q16539). More on the design: species or system Escherichia coli.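 Note: inhibition of p38alpha enzyme activity in a biochemical kinase assay, with myelin basic protein serving as substrate; in other assays of this panel Not Active means under 50% inhibition at 10 µM.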
Chain of Mitogen-activated protein kinase 14 (Q16539 whole entry): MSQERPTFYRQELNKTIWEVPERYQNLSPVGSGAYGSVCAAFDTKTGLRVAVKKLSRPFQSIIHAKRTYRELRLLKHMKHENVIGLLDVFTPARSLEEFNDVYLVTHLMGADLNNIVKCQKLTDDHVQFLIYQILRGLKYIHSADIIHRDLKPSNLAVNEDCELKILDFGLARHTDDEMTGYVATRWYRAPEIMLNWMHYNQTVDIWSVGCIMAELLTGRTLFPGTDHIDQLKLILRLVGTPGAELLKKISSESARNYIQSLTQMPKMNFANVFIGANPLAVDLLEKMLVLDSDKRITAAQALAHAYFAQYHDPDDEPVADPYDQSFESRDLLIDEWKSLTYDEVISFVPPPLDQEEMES
Assay [6] has as its target Tyrosine-protein kinase Fyn (Homo sapiens, UniProt P06241). The experiment in a line: biochemical. Format: cell-based, Insect cells. Conditions: insect cells.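 Note: enzymatic inhibition of Fyn kinase activity measured with Poly(Glu:Tyr) as the phosphorylation substrate; in other assays of this panel Not Active means under 50% inhibition at 10 µM.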

Chain of Tyrosine-protein kinase Fyn (P06241 whole entry): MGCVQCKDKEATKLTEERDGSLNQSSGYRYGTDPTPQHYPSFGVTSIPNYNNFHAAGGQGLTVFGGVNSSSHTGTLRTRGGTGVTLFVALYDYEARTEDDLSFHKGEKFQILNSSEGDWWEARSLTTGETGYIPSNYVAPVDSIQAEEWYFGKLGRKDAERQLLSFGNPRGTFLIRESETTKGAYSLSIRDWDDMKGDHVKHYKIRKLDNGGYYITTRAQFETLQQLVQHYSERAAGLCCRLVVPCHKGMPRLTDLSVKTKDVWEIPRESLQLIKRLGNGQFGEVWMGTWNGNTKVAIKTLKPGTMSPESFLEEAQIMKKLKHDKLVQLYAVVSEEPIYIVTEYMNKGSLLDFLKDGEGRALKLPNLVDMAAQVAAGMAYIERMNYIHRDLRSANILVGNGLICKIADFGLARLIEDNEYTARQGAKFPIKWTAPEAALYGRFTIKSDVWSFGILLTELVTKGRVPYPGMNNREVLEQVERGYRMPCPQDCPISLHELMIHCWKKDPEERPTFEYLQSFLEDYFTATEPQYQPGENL

With `Nn1nnc2ccccc21`, the IC50 entry in assay [1], in assay [2], in assay [3], in assay [4], in assay [5] and in assay [6] was “Not Active” throughout. In addition, the Ki result in assay [1] and in assay [2] was “Not Active” throughout.
Turning to `CC[C@]1(O)CC[C@H]2[C@@H]3CCC4=CCCC[C@@H]4[C@H]3CC[C@@]21C`, the IC50 entry in assay [1], in assay [2], in assay [3], in assay [4], in assay [5] and in assay [6] was “Not Active” throughout. For the same compound, the Ki entry in assay [1] and in assay [2] was “Not Active” throughout.
Consider `N[C@@H](Cc1ccc(F)cc1)C(=O)O`, for which the IC50 result in assay [1], in assay [2], in assay [3], in assay [4], in assay [5] and in assay [6] was “Not Active” each time. Further, the Ki entry in assay [1] and in assay [2] was “Not Active” throughout.
Turning to `CCOC(=O)[C@H](CCc1ccccc1)N[C@@H](C)C(=O)N1Cc2ccccc2C[C@H]1C(=O)O`, the IC50 entry in assay [1], in assay [2], in assay [3], in assay [4], in assay [5] and in assay [6] was “Not Active” each time. Besides, the Ki entry in assay [1] and in assay [2] was “Not Active” in each case.
Regarding `O=C(c1ccccc1Cl)N1CCC(Cc2ccccc2)CC1`, the IC50 entry in assay [1] was “Not Active”; in assay [2], “Not Active”; in assay [3], “Not Active”; in assay [4], “Not Active”; in assay [5] (read-out: IC50), 833 nM; in assay [6] it was “Not Active”. The Ki entry in assay [1] and in assay [2] was “Not Active” throughout.
Turning to `CCOC(=O)[C@H](CCc1ccccc1)N[C@@H](C)C(=O)N1CCC[C@H]1C(=O)O`, the IC50 entry in assay [1], in assay [2], in assay [3], in assay [4], in assay [5] and in assay [6] was “Not Active” in each case. In addition, the Ki entry in assay [1] and in assay [2] was “Not Active” throughout.
For the compound `Clc1cc2c(cc1Cl)Oc1cc(Cl)c(Cl)cc1O2` [2,3,7,8-TETRACHLORODIBENZO-P-DIOXIN], the IC50 result in assay [1], in assay [2], in assay [3], in assay [4], in assay [5] and in assay [6] was “Not Active” throughout. Further, the Ki entry in assay [1] and in assay [2] was “Not Active” each time.
For `C=C1/C(=C\C=C2/CCC[C@]3(C)[C@@H]([C@H](C)CCCC(C)C)CC[C@@H]23)C[C@@H](O)C[C@@H]1O` [ALFACALCIDOL], the IC50 result in assay [1], in assay [2], in assay [3], in assay [4], in assay [5] and in assay [6] was “Not Active” throughout. The Ki result in assay [1] and in assay [2] was “Not Active” each time.
For the compound `CCCCCC[C@H]1C(=O)O[C@H](C)[C@H](NC(=O)c2cccc(NC=O)c2O)C(=O)O[C@@H](C)[C@@H]1OC(=O)CC(C)C` [ANTIMYCIN A], the IC50 result in assay [1], in assay [2], in assay [3], in assay [4], in assay [5] and in assay [6] was “Not Active” each time. Further, the Ki entry in assay [1] and in assay [2] was “Not Active” each time.
With `Cc1cnc(C(=O)NCCc2ccc(S(=O)(=O)NC(=O)NC3CCCCC3)cc2)cn1` [GLIPIZIDE], the IC50 entry in assay [1], in assay [2], in assay [3], in assay [4] and in assay [6] was “Not Active” throughout. Moreover, the Ki entry in assay [1] and in assay [2] was “Not Active” each time.
